The text below walks through data of patent publication US11964988B2, “Fused heterocyclic compounds as RET kinase inhibitors” (ARRAY BIOPHARMA INC., priority 2018, dated 2024).

Numbering of substitutions follows the chain as printed. pIC50: −log10 of the molar value. Read-outs that look alike come from different tables or passages of the source.

Assay [1] concerns the target T1, RET kinase Wild Type (Homo sapiens, UniProt P07949).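 Note: HTRF kinase activity assay on RET enzyme, 1 h reaction at 22 °C, dual-wavelength readout as percent of control, DMSO-only wells as 100%, pre-quenched reactions as 0%.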
For assay [2], the target named is T2, HEK-293 cells expressing a G810R mutant RET Kif5b-RET fusion protein (Homo sapiens, UniProt P07949, G810R).
T2 construct: KIF5B (N-terminal portion incl. coiled-coil); expressed in transfected cells; host or cells: HEK-293; the other entry of the earlier key: KIF5B (P33176, Kinesin-1 heavy chain)
T2 sequence (P07949 713-1063 G810R limits assumed): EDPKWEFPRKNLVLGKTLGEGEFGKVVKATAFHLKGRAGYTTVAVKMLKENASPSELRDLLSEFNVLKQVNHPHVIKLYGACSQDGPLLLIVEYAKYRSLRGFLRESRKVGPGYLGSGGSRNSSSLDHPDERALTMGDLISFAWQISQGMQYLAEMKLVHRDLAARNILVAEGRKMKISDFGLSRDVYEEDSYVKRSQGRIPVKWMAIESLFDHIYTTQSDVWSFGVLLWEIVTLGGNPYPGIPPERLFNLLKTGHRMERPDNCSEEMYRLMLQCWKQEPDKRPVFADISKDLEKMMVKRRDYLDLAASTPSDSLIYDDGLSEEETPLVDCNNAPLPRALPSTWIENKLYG
As to the kind of experiment: RET G810R Mutant Cell Assay (phospho-RET Tyr1062). The format is cell-based. The conditions noted are these: HEK-293 Kif5b-RET G810R, 1 hour incubation, phospho-RET normalized to GAPDH. The gist of the method: (§1)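 Engineered HEK-293 cells were treated 1 h with compound in DMEM, 0.5% DMSO final, then fixed, permeabilized and immunostained for phospho-RET Tyr1062 and GAPDH. In-cell fluorescence pRET signal was normalized to GAPDH; IC50 taken from a 4-parameter logistic fit of percent of control at 50 POC.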

The target of assay [3] is T3, G810R mutant RET kinase (Homo sapiens, UniProt P07949, G810R).
T3 sequence (P07949 29-1114 G810R): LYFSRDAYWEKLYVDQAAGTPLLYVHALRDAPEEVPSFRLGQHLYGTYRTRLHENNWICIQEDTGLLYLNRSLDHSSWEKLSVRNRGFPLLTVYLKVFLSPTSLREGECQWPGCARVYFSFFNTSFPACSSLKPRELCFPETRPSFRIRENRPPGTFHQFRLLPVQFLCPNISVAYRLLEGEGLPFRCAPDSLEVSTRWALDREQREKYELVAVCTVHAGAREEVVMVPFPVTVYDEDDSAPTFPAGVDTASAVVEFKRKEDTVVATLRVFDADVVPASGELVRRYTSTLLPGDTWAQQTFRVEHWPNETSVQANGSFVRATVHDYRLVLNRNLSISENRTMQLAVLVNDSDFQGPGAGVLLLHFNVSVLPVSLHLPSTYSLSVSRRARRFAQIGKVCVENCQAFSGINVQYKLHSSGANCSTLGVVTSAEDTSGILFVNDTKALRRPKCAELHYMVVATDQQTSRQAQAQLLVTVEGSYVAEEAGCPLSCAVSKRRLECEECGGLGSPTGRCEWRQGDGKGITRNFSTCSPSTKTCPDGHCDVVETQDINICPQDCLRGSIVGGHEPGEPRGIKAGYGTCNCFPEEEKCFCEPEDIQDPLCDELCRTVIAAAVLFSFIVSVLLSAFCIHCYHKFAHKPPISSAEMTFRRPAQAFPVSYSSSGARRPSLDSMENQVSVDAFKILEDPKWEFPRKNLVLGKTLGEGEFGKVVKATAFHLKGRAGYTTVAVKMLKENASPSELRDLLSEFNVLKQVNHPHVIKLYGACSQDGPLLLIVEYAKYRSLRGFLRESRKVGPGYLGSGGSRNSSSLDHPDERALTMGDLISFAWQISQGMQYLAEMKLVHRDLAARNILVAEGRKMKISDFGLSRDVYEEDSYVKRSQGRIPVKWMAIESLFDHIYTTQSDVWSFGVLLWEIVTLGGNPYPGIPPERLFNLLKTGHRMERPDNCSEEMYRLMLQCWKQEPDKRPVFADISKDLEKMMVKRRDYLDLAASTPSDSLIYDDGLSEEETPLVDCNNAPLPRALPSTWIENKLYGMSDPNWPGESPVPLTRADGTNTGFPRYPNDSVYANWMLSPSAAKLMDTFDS
Description: (§2) The potency of compounds inhibiting several different RET kinase forms (Wild Type, V804M, G810R, & G810S) were determined using CisBio's HTRF® KinEASE™-TK assay technology. […] After a 1 hour incubation at 22° C., the extent of reaction was determined using a PerkinElmer EnVision multimode plate reader via HTRF dual wavelength detection, and the percent of control (POC) was calculated using a ratiometric emission factor. One hundred POC was determined using DMSO only samples (no compound present), and 0 POC was determined using pre-quenched control reactions.
(§3) The potency of a compound inhibiting G810R or G810S mutant RET kinase was determined using CisBio's HTRF® KinEASE™-TK assay technology. The assays contained G810R or G810S mutant RET produced at Array Biopharma, Inc. (1 nM enzyme). […] After a 1-h incubation at 22° C., the extent of reaction was determined using a PerkinElmer EnVision multimode plate reader via HTRF dual wavelength detection, and the percent of control (POC) was calculated using a ratiometric emission factor. One hundred POC was determined using no test compounds, and 0 POC was determined using pre-quenched control reactions.
Assay [4] addresses T4, HEK-293 cells expressing a Kif5b-RET fusion protein (Homo sapiens, UniProt P07949).
T4 construct: KIF5B (N-terminal portion incl. coiled-coil); expressed in transfected cells; host or cells: HEK-293; the other entry of the earlier key: KIF5B (P33176, Kinesin-1 heavy chain)
T4 sequence (P07949 713-1063 limits assumed): T2 sequence (P07949 713-1063 G810R limits assumed) with R98G
Nature of the assay: RET Cell Assay (phospho-RET Tyr1062). Particulars: HEK-293 Kif5b-RET, 1 hour incubation, phospho-RET normalized to GAPDH; read-out: KIF5B-RET pTYR1062 Cell IC50. The format is cell-based. The method, boiled down: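 Kif5b-RET HEK-293 cells treated 1 hour with compound in DMEM (0.5% DMSO final), then fixed and immunostained for phospho-RET Tyr1062, normalized to GAPDH by infrared fluorescence. IC50 where the 4-parameter logistic fit of POC crosses 50.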

Assay [5] deals with T5, G810S mutant RET kinase (Homo sapiens, UniProt P07949, G810S).
T5 sequence (P07949 29-1114 G810S): as the sequence (P07949 29-1114 G810R) above, with R782S counted along it
The target in another assay is RET kinase V804M (Homo sapiens, UniProt P07949, V804M). As to the kind of experiment: RET Enzyme Assay (CisBio HTRF KinEASE-TK), V804M. The conditions noted are these: read-out: RET V804M Enz FRET IC50. Type of assay: biochemical. For orientation: TR-FRET usually uses a lanthanide donor and a delayed reading to cut background.
Chain of RET kinase V804M (P07949 29-1114 V804M): as the sequence (P07949 29-1114 G810R) above, with V776M, R782G counted along it
Assay [6] addresses T1, RET kinase Wild Type. Nature of the assay: biochemical.
The target of assay [7] is T3, G810R mutant RET kinase. Nature of the assay: biochemical.
Description: as §2, §3
Assay [8] has as its target T5, G810S mutant RET kinase. As to the kind of experiment: biochemical.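 Note: HTRF KinEASE-TK kinase assay with recombinant enzyme, 1 h at 22 °C, dual-wavelength ratiometric read-out, percent of control (DMSO-only = 100, pre-quenched reaction = 0).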
Assay [9] has as its target T6, HEK-293 cells expressing a G810S mutant RET Kif5b-RET fusion protein (Homo sapiens, UniProt P07949, G810S).
T6 construct: KIF5B (N-terminal portion incl. coiled-coil); expressed in transfected cells; host or cells: HEK-293
T6 sequence (P07949 713-1063 G810S limits assumed): T2 sequence (P07949 713-1063 G810R limits assumed) with R98S
Nature of the assay: RET G810S Mutant Cell Assay (phospho-RET Tyr1062). The format is cell-based. Particulars: HEK-293 Kif5b-RET G810S, 1 hour incubation, phospho-RET normalized to GAPDH. The method, boiled down: as §1

Setting [10] is: V804M RET, 1 mM ATP, averaged IC50.

T1 sequence (P07949 29-1114): as the sequence (P07949 29-1114 G810R) above, with R782G counted along it

Consider `C[C@H](n1c2c(c3c(N)ncnc31)-c1noc(C3CC3)c1[C@H](O)CC2)C(F)(F)F` (single isomer, unassigned) [Example 145], for which the pIC50 (as a rule, the IC50 on a negative log10 scale, so that one unit is a factor of ten) at RET kinase Wild Type [1] is 7.70; in [2], 6.92; against G810R mutant RET kinase [3], 7.07; in [4], 7.14; on G810S mutant RET kinase [5], 7.00; at RET kinase V804M (setting [10]) it was 7.51.
For the molecule `Nc1ncnc2c1c1c(n2C2CCNC2)CCC(O)c2c-1noc2C1CC1` (stereo not drawn) [Example 132, (Cis)-11-amino-3-cyclopropyl-7-(pyrrolidin-3-yl)-4,5,6,7-tetrahydroisoxazolo[4″,3″:6′,7]cyclohepta[1′,2′:4,5]pyrrolo[2,3-d]pyrimidin-4-ol 2,2,2-trifluoroacetate], the pIC50 at RET kinase Wild Type [1] was 5.77; at G810R mutant RET kinase [3], 5.35; on G810S mutant RET kinase [5], 5.63; on RET kinase V804M (setting [10]), 5.71.
The matching figures for `Nc1ncnc2c1c1c(n2C2CCNC2)CCC(O)c2c-1noc2C1CC1` (stereo not drawn) [Example 133, (Trans)-11-amino-3-cyclopropyl-7-(pyrrolidin-3-yl)-4,5,6,7-tetrahydroisoxazolo[4″,3″:6′,7′]cyclohepta[1′,2′:4,5]pyrrolo[2,3-d]pyrimidin-4-ol 2,2,2-trifluoroacetate]: 5.58, 5.21, 5.47 and 5.21.
As for `COC(=O)[C@H]1C[C@H](n2c3c(c4c(N)ncnc42)-c2noc(C4CC4)c2C(=O)CC3)C1` [Example 142, Methyl (1r,3r)-3-(11-amino-3-cyclopropyl-4-oxo-5,6-dihydroisoxazolo[4″,3″:6′,7′]cyclohepta[1′,2′:4,5]pyrrolo[2,3-d]pyrimidin-7(4H)-yl)cyclobutane-1-carboxylate], the pIC50 against RET kinase Wild Type [1] is 6.91; on G810R mutant RET kinase [3] it was 6.80; against G810S mutant RET kinase [5], 6.37; on RET kinase V804M (setting [10]), 6.30.
As to `CC1(n2c3c(c4c(N)ncnc42)-c2noc(C4CC4)c2[C@H](O)CC3)CC1` [Example 150, (R)-11-Amino-3-cyclopropyl-7-(1-methylcyclopropyl)-4,5,6,7-tetrahydroisoxazolo[4″,3″:6′,7′]cyclohepta[1′,2′:4,5]pyrrolo[2,3-d]pyrimidin-4-ol], the negative-log IC50 (pIC50) at RET kinase Wild Type [6] is 7.92; on G810R mutant RET kinase [7] it was 7.08; against G810S mutant RET kinase [8], 7.34; in assay [9] it was 7.74; in assay [2], 7.40; in [4], 8.40. For the same molecule, the pIC50 at RET kinase V804M is 7.82.
In the case of `CO[C@@H]1CCc2c(c3c(N)ncnc3n2C2(C)CC2)-c2noc(C3CC3)c21` [Example 151, (R)-3-Cyclopropyl-4-methoxy-7-(1-methylcyclopropyl)-4,5,6,7-tetrahydroisoxazolo[4″,3″:6′,7]cyclohepta[1′,2′:4,5]pyrrolo[2,3-d]pyrimidin-11-amine], the pIC50 on RET kinase Wild Type [6] was 8.05; against G810R mutant RET kinase [7], 7.07; at G810S mutant RET kinase [8], 7.26; in assay [9], 7.24; in assay [2], 6.95; in assay [4], 7.85. Further, the pIC50 on RET kinase V804M was 7.57.
